In US4656166A, “Antibiotic compounds derived from cephalosporins, process for their production and pharmaceutical compositions” (Sanofi, priority 1983, dated 1987):
≈ marks a conversion by molar mass, not a printed value. Where two headings read alike, the source gives them in different places.

Experiments:
Format in all cases: cell-based
Escherichia coli SOL 90 = experiment: MIC, in vitro dilution method, Escherichia coli SOL 90 (Table III); details: SOL90; Escherichia coli SOL 90; dilution method; read-out: MIC
Procedure, shortened: (§1)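 Bacteriostatic activity was determined in vitro by the dilution method against Gram-negative strains. Values are minimum inhibitory concentrations in μg/ml.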

Citrobacter RL 49 = experiment: MIC, in vitro dilution method, Citrobacter RL 49 (Table III); details: RL49
Procedure, shortened: as §1

[1] = tested on: Proteus vulgaris RL 99 bis; experiment: MIC, in vitro dilution method, Proteus vulgaris RL 99 bis (Table III); details: RL99BIS
Procedure, shortened: as §1

Serratia RL 72 = experiment: MIC, in vitro dilution method, Serratia RL 72 (Table III); details: RL72
Procedure, shortened: as §1

Klebsiella RO 30 = experiment: MIC, in vitro dilution method, Klebsiella RO 30 (Table III); details: RO30; Klebsiella RO 30; dilution method; read-out: MIC
Procedure, shortened: as §1

Enterobacter RO 154 = experiment: MIC, in vitro dilution method, Enterobacter RO 154 (Table III); details: RO154; Enterobacter RO 154; dilution method; read-out: MIC
Procedure, shortened: as §1

Pseudomonas RL 112 = experiment: MIC, in vitro dilution method, Pseudomonas RL 112 (Table III); details: RL112
Procedure, shortened: as §1

Escherichia coli 255 = experiment: MIC on beta-lactamase producing strain Escherichia coli 255 (Table IV); details: Escherichia coli 255, producing beta-lactamases; read-out: MIC
Experimental: (§2) To evaluate the stability of these products towards beta-lactamases, their MIC was determined on isogenic strains producing and not producing beta-lactamases.
(§3) The results are expressed in μg/ml in Table IV.

Escherichia coli 255/L.7 = experiment: MIC on strain not producing beta-lactamase, Escherichia coli 255/L.7 (Table IV); details: Escherichia coli 255/L.7 *, not producing beta-lactamases; read-out: MIC
Experimental: as §2, §3

[2] = tested on: Serrtia liquefaciens SL/326 A; experiment: MIC on beta-lactamase producing strain Serratia liquefaciens SL/326 A (Table IV)
Experimental: as §2, §3

[3] = tested on: Serrtia liquefaciens SL 1326 S; experiment: MIC on strain not producing beta-lactamase, Serratia liquefaciens SL 1326 S (Table IV); details: SL1326S, not producing beta-lactamases
Experimental: as §2, §3

[4] = tested on: Proteus vulgaris GN 76/C.1; experiment: MIC on beta-lactamase producing strain Proteus vulgaris GN 76/C.1 (Table IV); details: GN76
Experimental: as §2, §3

[5] = tested on: Proteus vulgaris GN 76/C.1/3; experiment: MIC on strain not producing beta-lactamase, Proteus vulgaris GN 76/C.1/3 (Table IV); details: GN76, not producing beta-lactamases
Experimental: as §2, §3

[6] = Citrobacter RL 49, dilution method, read-out: MIC
[7] = Proteus vulgaris RL 99 bis, dilution method, read-out: MIC
[8] = Proteus vulgaris GN 76/C.1, producing beta-lactamases, read-out: MIC

## CC(C)(ON=C(C(=O)NC1C(=O)N2C(C(=O)O)=C(CSC(=O)c3cccc(CN)c3)C[S+]([O-])C12)c1csc(N)n1)C(=O)O (stereo not drawn) [compound 42531]
Escherichia coli SOL 90
  MIC: 0.5 µg/mL (≈ 0.768 µM)
Citrobacter RL 49; [6]
  MIC: 0.25 µg/mL (≈ 0.384 µM)
[1]; Proteus vulgaris
  MIC: ≤ 0.125 µg/mL
Serratia RL 72
  MIC: 0.5 µg/mL (≈ 0.768 µM)
Klebsiella RO 30
  MIC: 0.25 µg/mL (≈ 0.384 µM)
Enterobacter RO 154
  MIC: 0.5 µg/mL (≈ 0.768 µM)
Pseudomonas RL 112
  MIC: 8 µg/mL (≈ 12.3 µM)
Escherichia coli 255
  MIC: 0.125 µg/mL (≈ 0.192 µM)
Escherichia coli 255/L.7
  MIC: 0.0625 µg/mL (≈ 0.096 µM)
[2]
  MIC: 0.125 µg/mL (≈ 0.192 µM)
[3]
  MIC: 0.0625 µg/mL (≈ 0.096 µM)
[4]; Proteus vulgaris
  MIC: 0.0625 µg/mL (≈ 0.096 µM)

## CC(N)CCC(=O)OCC1=C(C(=O)O)N2C(=O)C(NC(=O)C(=NOC(C)(C)C(=O)O)c3csc(N)n3)C2[S+]([O-])C1 (stereo not drawn) [42 027]
Escherichia coli SOL 90
  MIC: 0.25 µg/mL (≈ 0.416 µM)
Citrobacter RL 49; [6]
  MIC: 0.25 µg/mL (≈ 0.416 µM)
[1]; [7]
  MIC: ≤ 0.12 µg/mL
Serratia RL 72
  MIC: 0.5 µg/mL (≈ 0.832 µM)
Klebsiella RO 30
  MIC: 0.25 µg/mL (≈ 0.416 µM)
Enterobacter RO 154
  MIC: 2 µg/mL (≈ 3.33 µM)
Pseudomonas RL 112
  MIC: 4 µg/mL (≈ 6.66 µM)
Escherichia coli 255
  MIC: 0.12 µg/mL (≈ 0.2 µM)
Escherichia coli 255/L.7
  MIC: 0.06 µg/mL (≈ 0.0999 µM)
[2]
  MIC: 0.25 µg/mL (≈ 0.416 µM)
[3]
  MIC: ≤ 0.06 µg/mL
[4]; [8]
  MIC: 0.12 µg/mL (≈ 0.2 µM)

## CC(C)(ON=C(C(=O)NC1C(=O)N2C(C(=O)O)=C(CSC(=O)c3ccc(NC(=O)CN)cc3)C[S+]([O-])C12)c1csc(N)n1)C(=O)O (stereo not drawn) [compound 42664]
Escherichia coli SOL 90
  MIC: 1 µg/mL (≈ 1.44 µM)
Serratia RL 72
  MIC: 4 µg/mL (≈ 5.77 µM)
Klebsiella RO 30
  MIC: 0.5 µg/mL (≈ 0.721 µM)
Enterobacter RO 154
  MIC: 4 µg/mL (≈ 5.77 µM)
Pseudomonas RL 112
  MIC: 8 µg/mL (≈ 11.5 µM)
Escherichia coli 255
  MIC: 0.25 µg/mL (≈ 0.36 µM)
Escherichia coli 255/L.7
  MIC: 0.0625 µg/mL (≈ 0.0901 µM)
[2]
  MIC: 0.25 µg/mL (≈ 0.36 µM)
[3]
  MIC: 0.0625 µg/mL (≈ 0.0901 µM)
[4]; [8]
  MIC: 0.125 µg/mL (≈ 0.18 µM)
[5]
  MIC: 0.25 µg/mL (≈ 0.36 µM)

## CC(C)(ON=C(C(=O)NC1C(=O)N2C(C(=O)O)=C(CSC(=O)C3CCCNC3)C[S+]([O-])C12)c1csc(N)n1)C(=O)O (stereo not drawn) [compound 42074]
Escherichia coli SOL 90
  MIC: 1 µg/mL (≈ 1.59 µM)
Citrobacter RL 49; [6]
  MIC: 0.5 µg/mL (≈ 0.795 µM)
[1]; [7]
  MIC: 0.5 µg/mL (≈ 0.795 µM)
Serratia RL 72
  MIC: 4 µg/mL (≈ 6.36 µM)
Klebsiella RO 30
  MIC: 0.5 µg/mL (≈ 0.795 µM)
Enterobacter RO 154
  MIC: 8 µg/mL (≈ 12.7 µM)
Pseudomonas RL 112
  MIC: 8 µg/mL (≈ 12.7 µM)
Escherichia coli 255
  MIC: 0.5 µg/mL (≈ 0.795 µM)
Escherichia coli 255/L.7
  MIC: 0.25 µg/mL (≈ 0.398 µM)
[2]
  MIC: 0.25 µg/mL (≈ 0.398 µM)
[3]
  MIC: 0.12 µg/mL (≈ 0.191 µM)
[4]; [8]
  MIC: 0.5 µg/mL (≈ 0.795 µM)

## CC(C)(ON=C(C(=O)NC1C(=O)N2C(C(=O)O)=C(COC(=O)C3CCN(C(=O)CN)CC3)C[S+]([O-])C12)c1csc(N)n1)C(=O)O (stereo not drawn) [42 549]
Escherichia coli SOL 90
  MIC: 0.25 µg/mL (≈ 0.373 µM)
Citrobacter RL 49; Citrobacter
  MIC: ≤ 0.125 µg/mL
[1]; Proteus vulgaris
  MIC: ≤ 0.125 µg/mL
Serratia RL 72
  MIC: 0.5 µg/mL (≈ 0.747 µM)
Klebsiella RO 30
  MIC: 0.25 µg/mL (≈ 0.373 µM)
Enterobacter RO 154
  MIC: 0.25 µg/mL (≈ 0.373 µM)
Pseudomonas RL 112
  MIC: 4 µg/mL (≈ 5.97 µM)
Escherichia coli 255
  MIC: 0.125 µg/mL (≈ 0.187 µM)
Escherichia coli 255/L.7
  MIC: 0.0625 µg/mL (≈ 0.0933 µM)
[2]
  MIC: 0.125 µg/mL (≈ 0.187 µM)
[3]
  MIC: ≤ 0.0312 µg/mL
[4]; Proteus vulgaris
  MIC: ≤ 0.0312 µg/mL
[5]
  MIC: 0.0625 µg/mL (≈ 0.0933 µM)
